According to patent US5631293A, “Preparation of amino acid-substituted benzoylguanidines as diagnostic agents” (priority 1994, dated 1997):
Where a name gives a salt, the structure may show the parent alone.

What was measured:
[1] = target: T1, Na+/H^+ exchanger of rabbit erythrocytes (Oryctolagus cuniculus, UniProt P23791); assay: Inhibition of the Na+/H+ exchanger of rabbit erythrocytes (amiloride-sensitive Na+ influx, flame photometry); type: cell-based, rabbit (White New Zealand); details: cholesterol diet 2% six weeks, pH 7.4, 37° C
T1 construct: determine the Na^+ influx into the erythrocytes via Na^+ /H^+ exchange by flame photometry; endogenous in cells; host or cells: erythrocytes in blood from the ear arteries of cholesterol-fed White New Zealand rabbits (Ivanovas)
T1 sequence (P23791 whole entry): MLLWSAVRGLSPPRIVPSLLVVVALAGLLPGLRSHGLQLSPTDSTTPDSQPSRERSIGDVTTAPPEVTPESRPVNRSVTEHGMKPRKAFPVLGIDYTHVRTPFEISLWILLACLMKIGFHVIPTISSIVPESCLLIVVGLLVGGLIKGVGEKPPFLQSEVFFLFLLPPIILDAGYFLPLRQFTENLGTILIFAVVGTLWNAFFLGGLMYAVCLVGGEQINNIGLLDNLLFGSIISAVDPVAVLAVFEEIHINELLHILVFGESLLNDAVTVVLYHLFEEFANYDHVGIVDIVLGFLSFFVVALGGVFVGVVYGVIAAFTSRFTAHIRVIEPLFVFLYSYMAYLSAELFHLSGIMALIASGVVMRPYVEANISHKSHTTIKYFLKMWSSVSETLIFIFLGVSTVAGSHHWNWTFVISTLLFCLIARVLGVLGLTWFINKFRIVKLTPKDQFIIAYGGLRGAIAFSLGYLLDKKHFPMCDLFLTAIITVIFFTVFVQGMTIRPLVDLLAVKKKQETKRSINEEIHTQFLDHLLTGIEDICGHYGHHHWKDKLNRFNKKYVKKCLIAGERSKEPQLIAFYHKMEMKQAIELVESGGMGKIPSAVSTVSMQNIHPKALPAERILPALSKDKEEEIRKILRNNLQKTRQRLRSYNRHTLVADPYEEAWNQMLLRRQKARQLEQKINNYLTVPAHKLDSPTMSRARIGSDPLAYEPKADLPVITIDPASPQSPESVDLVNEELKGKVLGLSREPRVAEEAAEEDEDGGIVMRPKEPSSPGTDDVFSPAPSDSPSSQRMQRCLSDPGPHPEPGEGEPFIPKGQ
Source text: Inhibition of the Na+/H^+ exchanger of rabbit erythrocytes
White New Zealand rabbits (Ivanovas) were given a standard diet with 2% of cholesterol for six weeks in order to activate the Na^+ /H^+ exchange and in this way to be able to determine the Na^+ influx into the erythrocytes via Na^+ /H^+ exchange by flame photometry. The blood was removed from the ear arteries and rendered noncoagulable by 25 IU of potassium-heparin. A portion of each sample was used for duplicate determination of the hematocrit by centrifugation. Aliquots of in each case 100 μl were used for measurement of the starting Na^+ content of the erythrocytes.
To determine the amiloride-sensitive sodium influx, 100 μl of each blood sample were incubated in 5 ml portions each of a hyperosmolar salt/sucrose medium (mmol/l: 140 NaCl, 3 KCl, 150 sucrose, 0.1 ouabain, 20 tris-hydroxymethylaminomethane) at pH 7.4 and 37° C. The erythrocytes were then washed three times with ice-cold MgCl2 /ouabain solution (mmol/l: 112 MgCl2, 0.1 ouabain) and hemolyzed in 2.0 ml of distilled water. The intracellular sodium content was determined by flame photometry.
The Na^+ net influx was calculated from the difference between the starting sodium values and the sodium content of the erythrocytes after incubation. The sodium influx which can be inhibited by amiloride resulted from the difference between the sodium content of the erythrocytes after incubation with and without 3×10^-4 mol/l of amiloride. This procedure was also followed with compounds according to the invention.

[2] = system: artificially induced ventricular fibrillation on rat hearts; details: isolated rat hearts, cited from earlier work
[3] = system: disturbances in cardiac rhythm; details: Circulation 79, 1257-63 (1989); cited from earlier work

CC(C)(C)OC(=O)N[C@@H](Cc1ccc(Oc2ccc(C(=O)N=C(N)N)cc2S(C)(=O)=O)cc1)C(=O)O [Example 1, N-tert-Butoxycarbonyl-4-[(4-guanidinocarbonyl-2-methylsulfonyl)phenoxy]-phenylalanine]
IC50 [1]: 430 nM

NC(N)=NC(=O)c1ccc(Oc2ccc(CC(N)C(=O)O)cc2)c(C(F)(F)F)c1 (stereo not shown) [Example 4, 4-[(4-Guanidinocarbonyl-2-trifluoromethyl)phenoxy]phenylalanine, dihydrochloride]
IC50 [1]: 26 nM

CS(=O)(=O)c1cc(C(=O)N=C(N)N)ccc1Oc1ccc(C[C@H](N)C(=O)O)cc1 [Example 2, 4-[(4-Guanidinocarbonyl-2-methylsulfonyl)phenoxy]phenylalanine]
IC50 [1]: 1000 nM

NC(N)=NC(=O)c1nc(Cl)c(N)nc1N [amiloride]
suppression of artificially induced ventricular fibrillation [2]: suppressed completely | antiarrhythmic effect [3]: only weak | side-effects accompanying the antiarrhythmic effect [3]: antihypertensive and saluretic action

CCN(c1nc(N)c(C(=O)N=C(N)N)nc1Cl)C(C)C [ethylisopropylamiloride]
potency against ventricular fibrillation compared with amiloride ([2]; relative to amiloride): even more potent than amiloride
